This data set deals with CCRIS mutagenicity, Ames/micronucleus/aberration tests. In words: CCRIS mutagenicity studies.
The mark [1] stands for this setting: Test System: AMES SALMONELLA TYPHIMURIUM, Strain/Indicator: TA98, Metabolic Activation: RAT, LIVER, S-9, AROCLOR 1254, Method: STANDARD PLATE.
Setting [2] is: Test System: AMES SALMONELLA TYPHIMURIUM, Strain/Indicator: TA100, Metabolic Activation: NONE, Method: STANDARD PLATE.
Where [3] appears, read: Test System: AMES SALMONELLA TYPHIMURIUM, Strain/Indicator: TA100, Metabolic Activation: RAT, LIVER, S-9, AROCLOR 1254, Method: STANDARD PLATE.
Setting [4] is: Test System: AMES SALMONELLA TYPHIMURIUM, Strain/Indicator: TA1537, Metabolic Activation: RAT, LIVER, S-9, AROCLOR 1254, Method: STANDARD PLATE.
The mark [5] stands for this setting: Test System: AMES SALMONELLA TYPHIMURIUM, Strain/Indicator: TA1538, Metabolic Activation: RAT, LIVER, S-9, AROCLOR 1254, Method: STANDARD PLATE.
Setting [6] is: Test System: AMES SALMONELLA TYPHIMURIUM, Strain/Indicator: TA98, Metabolic Activation: NONE, Method: PREINCUBATION
Setting [7] is: Test System: AMES SALMONELLA TYPHIMURIUM, Strain/Indicator: TA100, Metabolic Activation: NONE, Method: PREINCUBATION

The source made the active and inactive calls. The rule behind the calls is not given here.

For `CC/C=C\C/C=C\C/C=C\CCCCCCCC(=O)O`, the mutagenic call is “inactive; negative” (Test System: AMES SALMONELLA TYPHIMURIUM, Strain/Indicator: TA98, Metabolic Activation: HAMSTER, LIVER, S-9, AROCLOR 1254, Method: STANDARD PLATE); “inactive; negative” (Test System: AMES SALMONELLA TYPHIMURIUM, Strain/Indicator: TA98, Metabolic Activation: NONE, Method: STANDARD PLATE); “inactive; negative” under setting [1]; “inactive; negative” (Test System: AMES SALMONELLA TYPHIMURIUM, Strain/Indicator: TA100, Metabolic Activation: HAMSTER, LIVER, S-9, AROCLOR 1254, Method: STANDARD PLATE); “inactive; negative” under setting [2]; “inactive; negative” under setting [3]. The mutagenic call was “inactive; negative” (Test System: AMES SALMONELLA TYPHIMURIUM, Strain/Indicator: TA1535, Metabolic Activation: HAMSTER, LIVER, S-9, AROCLOR 1254, Method: STANDARD PLATE); “inactive; negative” (Test System: AMES SALMONELLA TYPHIMURIUM, Strain/Indicator: TA1535, Metabolic Activation: NONE, Method: STANDARD PLATE); “inactive; negative” (Test System: AMES SALMONELLA TYPHIMURIUM, Strain/Indicator: TA1535, Metabolic Activation: RAT, LIVER, S-9, AROCLOR 1254, Method: STANDARD PLATE); “inactive; negative” (Test System: AMES SALMONELLA TYPHIMURIUM, Strain/Indicator: TA1537, Metabolic Activation: HAMSTER, LIVER, S-9, AROCLOR 1254, Method: STANDARD PLATE); “inactive; negative” (Test System: AMES SALMONELLA TYPHIMURIUM, Strain/Indicator: TA1537, Metabolic Activation: NONE, Method: STANDARD PLATE); “inactive; negative” under setting [4]. For the same molecule, the mutagenic call is, setting by setting: (Test System: AMES SALMONELLA TYPHIMURIUM, Strain/Indicator: TA1538, Metabolic Activation: HAMSTER, LIVER, S-9, AROCLOR 1254, Method: STANDARD PLATE) “inactive; negative”; (Test System: AMES SALMONELLA TYPHIMURIUM, Strain/Indicator: TA1538, Metabolic Activation: NONE, Method: STANDARD PLATE) “inactive; negative”; under setting [5], “inactive; negative”; (Test System: MOUSE LYMPHOMA, Strain/Indicator: L5178Y (TK+/TK-), Metabolic Activation: NONE, Method: SUSPENSION/PLATE) “inactive; negative. reevaluation of results: inconclusive”; (Test System: MOUSE LYMPHOMA, Strain/Indicator: L5178Y (TK+/TK-), Metabolic Activation: RAT, LIVER, S-9, AROCLOR 1254, Method: SUSPENSION/PLATE) “inactive; negative. reevaluation of results: negative”.
For the molecule `Oc1ccc2ccc3c4c(cc5ccc1c2c53)[C@@H](O)[C@H](O)C=C4`, the mutagenic call reads like this: (Test System: AMES SALMONELLA TYPHIMURIUM, Strain/Indicator: TA97, Metabolic Activation: RAT, LIVER, S-9, AROCLOR 1254, Method: STANDARD PLATE) “active; positive”; under setting [1], “active; positive”; under setting [3], “active; positive”; under setting [4], “active; positive”; (Test System: CHINESE HAMSTER V-79, Strain/Indicator: V-79/6-THIOGUANINE, Metabolic Activation: RAT, LIVER, S-9, AROCLOR 1254) “active; positive”.
Consider `Cc1ccc(NN=NCc2ccccc2)cc1`, for which the mutagenic call is, setting by setting: under setting [6], “active; positive”; (Test System: AMES SALMONELLA TYPHIMURIUM, Strain/Indicator: TA98, Metabolic Activation: RAT, LIVER, S-9, PCB, Method: PREINCUBATION) “active; positive”; under setting [7], “active; positive”; (Test System: AMES SALMONELLA TYPHIMURIUM, Strain/Indicator: TA100, Metabolic Activation: RAT, LIVER, S-9, PCB, Method: PREINCUBATION) “active; positive”.
Regarding `CC(=O)C(N=Nc1ccc(-c2ccc(N=NC(C(C)=O)C(=O)Nc3ccccc3)c(Cl)c2)cc1Cl)C(=O)Nc1ccccc1` (stereo unspecified), the mutagenic call by setting is: (Test System: AMES SALMONELLA TYPHIMURIUM, Strain/Indicator: TA98, Metabolic Activation: HAMSTER, LIVER, S-9, AROCLOR 1254 (10%), Method: PREINCUBATION) “inactive; negative”; under setting [6], “inactive; negative”; (Test System: AMES SALMONELLA TYPHIMURIUM, Strain/Indicator: TA98, Metabolic Activation: RAT, LIVER, S-9, AROCLOR 1254 (10%), Method: PREINCUBATION) “inactive; negative”; (Test System: AMES SALMONELLA TYPHIMURIUM, Strain/Indicator: TA100, Metabolic Activation: HAMSTER, LIVER, S-9, AROCLOR 1254 (10%), Method: PREINCUBATION) “inactive; negative”; under setting [7], “inactive; negative”; (Test System: AMES SALMONELLA TYPHIMURIUM, Strain/Indicator: TA100, Metabolic Activation: RAT, LIVER, S-9, AROCLOR 1254 (10%), Method: PREINCUBATION) “inactive; negative”. In addition, the mutagenic call is “inactive; negative” (Test System: AMES SALMONELLA TYPHIMURIUM, Strain/Indicator: TA1535, Metabolic Activation: HAMSTER, LIVER, S-9, AROCLOR 1254 (10%), Method: PREINCUBATION); “inactive; negative” (Test System: AMES SALMONELLA TYPHIMURIUM, Strain/Indicator: TA1535, Metabolic Activation: NONE, Method: PREINCUBATION); “inactive; negative” (Test System: AMES SALMONELLA TYPHIMURIUM, Strain/Indicator: TA1535, Metabolic Activation: RAT, LIVER, S-9, AROCLOR 1254 (10%), Method: PREINCUBATION); “inactive; negative” (Test System: AMES SALMONELLA TYPHIMURIUM, Strain/Indicator: TA1537, Metabolic Activation: HAMSTER, LIVER, S-9, AROCLOR 1254 (10%), Method: PREINCUBATION); “inactive; negative” (Test System: AMES SALMONELLA TYPHIMURIUM, Strain/Indicator: TA1537, Metabolic Activation: NONE, Method: PREINCUBATION); “inactive; negative” (Test System: AMES SALMONELLA TYPHIMURIUM, Strain/Indicator: TA1537, Metabolic Activation: RAT, LIVER, S-9, AROCLOR 1254 (10%), Method: PREINCUBATION). Moreover, the mutagenic call under setting [5] is “inactive; negative”.
`C=C(C#N)C(=O)OCC(C)C`: the mutagenic call by setting is: under setting [2], “inactive; negative”; under setting [3], “inactive; negative”.
Turning to `Fc1cccc2cc3c(cc12)-c1cccc2cccc-3c12`, under setting [3], the mutagenic call was “active; positive”.
On to `O[C@@H]1[C@H]2O[C@H]2c2c(cc3ccc4cccc5c6ccccc6c2c3c45)[C@H]1O`, for which the mutagenic call (Test System: AMES SALMONELLA TYPHIMURIUM, Strain/Indicator: TA97, Metabolic Activation: NONE, Method: PREINCUBATION (EXPOSURE IN MEDIUM WITH KCL)) was “active; positive”; the mutagenic call (Test System: AMES SALMONELLA TYPHIMURIUM, Strain/Indicator: TA97, Metabolic Activation: NONE, Method: PREINCUBATION (EXPOSURE IN MEDIUM WITHOUT KCL)) is “active; positive”; the mutagenic call (Test System: AMES SALMONELLA TYPHIMURIUM, Strain/Indicator: TA98, Metabolic Activation: NONE, Method: PREINCUBATION (EXPOSURE IN MEDIUM WITH KCL)) is “active; positive”; the mutagenic call (Test System: AMES SALMONELLA TYPHIMURIUM, Strain/Indicator: TA98, Metabolic Activation: NONE, Method: PREINCUBATION (EXPOSURE IN MEDIUM WITHOUT KCL)) is “active; positive”; the mutagenic call (Test System: AMES SALMONELLA TYPHIMURIUM, Strain/Indicator: TA100, Metabolic Activation: NONE, Method: PREINCUBATION (EXPOSURE IN MEDIUM WITH KCL)) was “active; positive”; the mutagenic call (Test System: AMES SALMONELLA TYPHIMURIUM, Strain/Indicator: TA100, Metabolic Activation: NONE, Method: PREINCUBATION (EXPOSURE IN MEDIUM WITHOUT KCL)) was “active; positive”. The mutagenic call was “active; positive” (Test System: AMES SALMONELLA TYPHIMURIUM, Strain/Indicator: TA104, Metabolic Activation: NONE, Method: PREINCUBATION (EXPOSURE IN MEDIUM WITH KCL)); “active; positive” (Test System: AMES SALMONELLA TYPHIMURIUM, Strain/Indicator: TA104, Metabolic Activation: NONE, Method: PREINCUBATION (EXPOSURE IN MEDIUM WITHOUT KCL)); “active; positive” (Test System: CHINESE HAMSTER V-79, Strain/Indicator: V-79/6-THIOGUANINE, Metabolic Activation: NONE).

Values taken from PubChem BioAssay AID1259407 (Chemical Carcinogenesis Research Information System (CCRIS), 2018).
